Reference: US20250221930A1, “A COMPOSITION COMPRISING LIPID NANOPARTICLES AND AN ANTIFUNGAL POLYENE” (INSTITUT NATIONAL DE LA SANTÉ ET DE LA RECHERCHE MÉDICALE, priority 2022, published 2025)
In brackets after ≈: the same amount, converted by molar mass.

Legend:
[1] = test system: L. ramosa; experiment: Checkerboard MICs of AmB, ISA and PEG15HS in solution; format: cell-based, Lichtheimia ramosa; settings: RPMI, 24 h at 37° C.
Description: (§1) AmB minimum inhibitory concentrations (MIC) of each strain of Mucorales was measured in RPMI in the presence of different concentrations of ISA or PEG15HS as described by the EUCAST broth microdilution antifungal susceptibility test methodology with modification for the checkerboard procedure. Checkerboards were performed by adding 100 μL of two-fold dilutions of AmB (0.008 to 4 mg/L) and ISA (0.008 to 4 mg/L) or PEG15HS (0.04 to 2752 mg/L) in 96 well plates. One hundred microliters of a spore suspension at a concentration of 105 spores/mL were added to the wells, and the plates were incubated for 24 h at 37° C. […] Three experiments were performed for each strain.
(§2) AmB MIC of each strain of Mucorales was measured in RPMI in the presence of different concentrations of ISA and a constant concentration of PEG15HS (100 times the concentration of AmB) as described by the EUCAST broth microdilution antifungal susceptibility test methodology with modification for the checkerboard procedure. Checkerboards were performed by adding 100 μL of two-fold dilutions of AmB (0.008 to 4 mg/L)+PEG15HS (0.8 to 400 mg/L) and ISA (0.008 to 4 mg/L) in 96 well plates. One hundred microliters of a spore suspension at a concentration of 105 spores/mL were added to the wells, and the plates were incubated for 24 h at 37° C. […] Three experiments were performed for each strain. […]

[2] = test system: Cryptococcus neoformans; experiment: EUCAST MICs of AmB alone and AmB formulated in LNPs; format: cell-based
Description: This medium was sterilized using a 0.22 μm pore-size filter.
AmB powder (Sigma-Aldrich) was dissolved in dimethyl sulfoxide to obtain a stock solution at 1000 mg/L, stored at −80° C. for six months.
On the day of use, AmB and freshly made AmB-loaded LNPs were diluted in RPMI medium to obtain the desired concentrations. The AmB-loaded LNPs were prepared as detailed in Example 5.
MICs of AmB alone and AmB formulated in LNPs were evaluated according to the European Committee on Antimicrobial Susceptibility Testing (EUCAST) guidelines. Briefly, MICs were determined by adding 100 μL of two-fold dilutions of AmB (0.008 to 4 mg/L) and LNPs-AmB (0.04 to 1024 mg/L) in 96-well plates. One hundred microliters of a fungal suspension at a final concentration of 10^5 CFU/mL was added to the wells, and the plates were incubated for 48 h at 30° C. MICs, defined as the lowest concentration of AmB inhibiting 90% of the growth of the fungal strain, were read after […] of incubation by measuring absorbance at 530 nm with an Infinite M200 Pro microplate reader (Tecan®, France). Three experiments were performed for each strain.

[3] = test system: Twelve clinical isolates of Mucorales; experiment: Checkerboard AmB MIC with surfactant in solution, statements over all isolates; format: cell-based
Description: Twelve clinical isolates of Mucorales identified by ARNr sequencing were used: Rhizopus arrhizus (5), Rhizopus microsporus (1), Lichtheimia corymbifera (3), Lichtheimia ramosa (1), Mucor circinelloides (1), Rhizomucor pusillus (1). Isolates were subcultured from frozen stocks (−80° C.) on 75 cm^3 flasks containing 15 mL of Sabouraud dextrose agar (Sigma-Aldrich, St. Quentin Fallavier, France) during 3 days at 37° C. Spores were collected by flooding the flask with 10 ml of sterile water. The suspensions were filtered on nylon filter (Millipore, Carrigtwohill, Ireland) with pore size of 11 μm to remove hyphal elements. The concentration of the spore suspensions was then adjusted in sterile water to obtain inocula of 2×10^5 spores/mL. […]
AmB minimum inhibitory concentrations (MIC) of each strain of Mucorales was measured in RPMI the presence of different concentrations of surfactant as described by the EUCAST broth microdilution antifungal susceptibility test methodology with modification for the checkerboard procedure. […]
In equation 1, MIC0 refers to the AmB MIC measured without surfactants and MIC∞ is the lowest AmB MIC measured in the presence of surfactant. The maximal ratio in AmB MIC decrease defined as maximal efficacy (Emax) was calculated as the ratio of MIC0/MIC∞. […] These parameters were evaluated using WinNonlin software (version 6.2, Certara, NJ, USA) as described by Chauzy et al.

[4] = test system: Rhizopus arrhizus 1; experiment: Checkerboard MICs of AmB, ISA and PEG15HS in solution; format: cell-based; settings: RPMI, 24 h at 37° C.
Description: as §1, §2

[5] = test system: Aspergillus fumigatus; experiment: EUCAST MICs of AmB, ISA, AmB-loaded LNPs and AmB-ISA-loaded LNPs; format: cell-based; settings: 48 h at 37° C.
Description: Briefly, a mass (80-120 mg) of an oil phase consisting of triglycerides (Labrafac®, or tributyrin in different mass ratios, i.e. 100% Labrafac® to 100% tributyrin) was supplemented with AmB (0,025 to 0.2 mg) and ISA (0.25 to 5 mg) and then mixed with 80 to 120 mg of PEG15HS (Solutol HS15®) and 500 to 800 μl of water to form an oil-in-water emulsion. This emulsion was then heated to 85° C., to obtain a water-in-oil emulsion, and then cooled to 40° C. Three such temperature cycles were performed and the system was then fast cooled to 4° C. The formulated nanoparticles were then characterized by size distribution and mean zeta potential measurements. Examples of formulations of LNPs loaded with AmB and AmB-ISA are detailed in Table 5:
Two reference strains (ATCC 16424 and ATCC 204305) and a clinical azole-resistant strain (AfR2) of Aspergillus fumigatus were used.
MICs of AmB in solution, ISA in solution, AmB-loaded LNPs, and AmB-ISA-loaded LNPs were evaluated according to the European Committee on Antimicrobial Susceptibility Testing (EUCAST) guidelines. Briefly, MICs were determined by adding 100 μL of two-fold dilutions of AmB in solution, ISA in solution, AmB-LNPs or AmB-ISA-LNPs (0.008 to 4 mg/L) in 96-well plates. One hundred microliters of a spore suspension at a concentration of 105 spores/mL were added to the wells, and the plates were incubated for 24 h (Mucorales) or 48 h (A. fumigatus) at 37° C. […] Three experiments were performed for each strain.

[6] = test system: L. corymbifera; experiment: Checkerboard MICs of AmB, ISA and PEG15HS in solution; format: cell-based, Lichtheimia corymbifera; settings: RPMI, 24 h at 37° C.
Description: as §1, §2

C[C@@H]1[C@H](O)[C@@H](C)/C=C/C=C/C=C/C=C/C=C/C=C/C=C/[C@H](O[C@@H]2O[C@H](C)[C@@H](O)[C@H](N)[C@@H]2O)C[C@@H]2O[C@](O)(C[C@@H](O)C[C@@H](O)[C@H](O)CC[C@@H](O)C[C@@H](O)CC(=O)O[C@H]1C)C[C@H](O)[C@H]2C(=O)O [AmB, amphotericin B]
MIC of AmB [1]: 1 µg/mL | effect on growth of the cryptococci at concentrations below the MIC [2]: had no effect on the growth profile | MIC ([2]; all the isolates (eight clinical strains)): 0.25 to 1 µg/mL | MIC ([2]; strain C1, 90% growth inhibition, absorbance at 530 nm): 0.5 µg/mL (≈ 0.541 µM) | MIC ([2]; strain C2, 90% growth inhibition, absorbance at 530 nm): 0.25 µg/mL (≈ 0.271 µM) | MIC ([2]; strain C3, 90% growth inhibition, absorbance at 530 nm): 0.5 µg/mL (≈ 0.541 µM) | MIC ([2]; strain C4, 90% growth inhibition, absorbance at 530 nm): 0.5 µg/mL (≈ 0.541 µM) | MIC ([2]; strain C5, 90% growth inhibition, absorbance at 530 nm): 1 µg/mL (≈ 1.08 µM) | MIC ([2]; strain C6, 90% growth inhibition, absorbance at 530 nm): 1 µg/mL (≈ 1.08 µM) | MIC ([2]; strain C7, 90% growth inhibition, absorbance at 530 nm): 1 µg/mL (≈ 1.08 µM) | MIC ([2]; strain C8, 90% growth inhibition, absorbance at 530 nm): 1 µg/mL (≈ 1.08 µM) | MIC (agent alone) [3]: less than 1 mg/L | MIC of AmB [4]: 1 µg/mL | MIC (AmB) ([5]; A. fumigatus 20 (ATCC 204305)): 2 µg/mL (≈ 2.16 µM) | MIC (AmB) ([5]; A. fumigatus R2 (clinical azole-resistant strain AfR2)): 2 µg/mL (≈ 2.16 µM) | MIC (AmB) ([5]; Aspergillus fumigatus 16 (ATCC 16424)): 2 µg/mL (≈ 2.16 µM) | MIC of AmB [6]: 1 µg/mL
